Key:
[1] = molecular target: T1, telomerase (total cell lysates of lung cancer cell line H1299) (Homo sapiens, UniProt O14746); experiment: Telomere repeat amplification protocol (TRAP) assay; assay type: biochemical; conditions: preliminary screening at 10 μM, gel
T1 construct: As a source of telomerase, the total cell lysates derived from lung cancer cell line H1299 cells were used; endogenous in cells; host or cells: H1299 lung cancer cells (total cell lysate)
Experimental: Telomerase activity was detected by a modified version of the general TRAP protocol. Telomerase products were resolved by 10% polyacrylamide gel electrophoresis and visualized by staining with SYBER Green. As a source of telomerase, the total cell lysates derived from lung cancer cell line H1299 cells were used. Protein concentration of the lysates was assayed using Bio-Rad protein assay kit using BSA standards.
In the FIGS. 3A, 3B and FIG. 4, a positive control group (P) used water that had been sterilized three times in the assay; while a negative control group (N) used RNase A (CLONTECH) (5 μL, 0.1 mg/mL) in the assay.
In the positive control group (P), due to the absence of inhibitor, the telomerase could extend the telomere, such that some longer telomere fragments could be observed; while there was not observed in the negative control group (N). In the result of TRAP assay (FIG. 3A to 3B), compounds with a concentration of 10 μM was used as the preliminary screening. In the gel, standard compound A was 1,2-diaminoanthraquinone, D was doxorubicin, and M was mitoxantrone.

CAKI-1 = experiment: NCI 60-cell drug screen, one dose; assay type: cell-based, human; conditions: Renal Cancer CAKI-1, 1.00E−5 Molar
UACC-257 = experiment: NCI 60-cell drug screen, one dose; assay type: cell-based, human; conditions: Melanoma UACC-257, 1.00E−5 Molar
K562 = experiment: NCI 60-cell drug screen, one dose; assay type: cell-based, human; conditions: Leukemia K562, 1.00E−5 Molar

T1 sequence (O14746 whole entry): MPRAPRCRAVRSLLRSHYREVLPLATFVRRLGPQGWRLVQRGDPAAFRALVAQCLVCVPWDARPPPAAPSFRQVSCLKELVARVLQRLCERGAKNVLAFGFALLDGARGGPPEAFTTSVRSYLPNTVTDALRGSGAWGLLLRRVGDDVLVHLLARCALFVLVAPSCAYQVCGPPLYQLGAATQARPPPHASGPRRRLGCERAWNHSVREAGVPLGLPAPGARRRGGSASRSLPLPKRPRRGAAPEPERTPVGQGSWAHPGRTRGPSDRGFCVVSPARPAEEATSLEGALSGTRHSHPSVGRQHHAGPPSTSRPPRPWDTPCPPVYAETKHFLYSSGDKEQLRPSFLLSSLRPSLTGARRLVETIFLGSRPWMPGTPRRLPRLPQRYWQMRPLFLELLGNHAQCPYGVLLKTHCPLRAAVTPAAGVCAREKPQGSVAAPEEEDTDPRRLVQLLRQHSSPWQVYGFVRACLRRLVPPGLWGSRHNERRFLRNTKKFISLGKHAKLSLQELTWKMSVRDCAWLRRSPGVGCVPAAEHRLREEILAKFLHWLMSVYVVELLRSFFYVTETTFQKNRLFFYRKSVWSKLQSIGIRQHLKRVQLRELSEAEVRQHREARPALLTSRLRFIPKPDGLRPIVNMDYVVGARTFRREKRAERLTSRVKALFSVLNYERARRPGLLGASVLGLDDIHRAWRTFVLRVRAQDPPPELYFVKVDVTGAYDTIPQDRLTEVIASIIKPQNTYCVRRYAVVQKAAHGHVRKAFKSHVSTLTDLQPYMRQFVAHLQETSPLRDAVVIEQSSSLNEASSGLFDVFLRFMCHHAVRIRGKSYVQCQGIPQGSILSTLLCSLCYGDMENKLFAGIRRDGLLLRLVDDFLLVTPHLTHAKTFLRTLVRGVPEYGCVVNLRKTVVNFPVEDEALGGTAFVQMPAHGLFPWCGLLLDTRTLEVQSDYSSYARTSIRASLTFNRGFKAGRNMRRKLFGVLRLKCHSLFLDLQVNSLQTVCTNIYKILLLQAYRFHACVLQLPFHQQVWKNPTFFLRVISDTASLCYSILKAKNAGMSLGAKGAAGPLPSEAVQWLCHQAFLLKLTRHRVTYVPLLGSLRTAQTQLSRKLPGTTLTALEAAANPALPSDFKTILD
T1 sequence (O60832 whole entry partner): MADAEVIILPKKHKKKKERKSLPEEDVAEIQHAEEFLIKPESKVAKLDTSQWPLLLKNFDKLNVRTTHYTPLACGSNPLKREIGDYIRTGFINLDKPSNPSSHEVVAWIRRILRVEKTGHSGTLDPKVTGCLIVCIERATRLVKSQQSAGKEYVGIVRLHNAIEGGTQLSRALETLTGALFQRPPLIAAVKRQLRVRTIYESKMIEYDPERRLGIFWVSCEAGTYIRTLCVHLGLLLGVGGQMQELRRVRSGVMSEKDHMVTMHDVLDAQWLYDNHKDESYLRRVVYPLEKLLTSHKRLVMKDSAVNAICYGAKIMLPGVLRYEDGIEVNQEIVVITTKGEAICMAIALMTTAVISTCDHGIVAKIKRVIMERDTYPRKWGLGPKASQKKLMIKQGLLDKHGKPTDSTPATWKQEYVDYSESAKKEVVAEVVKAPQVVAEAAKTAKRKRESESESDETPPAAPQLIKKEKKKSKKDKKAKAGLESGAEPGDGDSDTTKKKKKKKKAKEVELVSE
T1 sequence (Q9NX24 whole entry partner): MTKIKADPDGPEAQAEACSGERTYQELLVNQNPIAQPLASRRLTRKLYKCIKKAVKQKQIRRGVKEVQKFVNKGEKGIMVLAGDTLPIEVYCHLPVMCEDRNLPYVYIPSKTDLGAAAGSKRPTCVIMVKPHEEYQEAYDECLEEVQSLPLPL
T1 sequence (Q9NPE3 whole entry partner): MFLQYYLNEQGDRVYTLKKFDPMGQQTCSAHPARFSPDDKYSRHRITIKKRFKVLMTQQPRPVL
T1 sequence (Q9NY12 whole entry partner): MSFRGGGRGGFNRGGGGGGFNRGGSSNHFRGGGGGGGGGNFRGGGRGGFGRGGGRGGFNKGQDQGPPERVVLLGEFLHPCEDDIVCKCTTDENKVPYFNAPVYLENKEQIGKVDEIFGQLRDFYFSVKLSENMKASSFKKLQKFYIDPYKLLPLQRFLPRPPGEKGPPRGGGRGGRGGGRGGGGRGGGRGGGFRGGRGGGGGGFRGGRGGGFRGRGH

SMILES | inhibition effect/activity of telomerase (TRAP) [1] | Growth Percent (CAKI-1) [%] | Growth Percent (UACC-257) [%] | Growth Percent (K562) [%]
CN1CCN(Cc2nc3ccc4c(c3[nH]2)C(=O)c2ccccc2C4=O)CC1 [CL24, 2-((4-methylpiperazin-1-yl)methyl)-1H-anthra[1,2-d]imidazole-6,11-dione] | more significant inhibition effect/activity of telomerase | – | – | –
O=C1c2ccccc2C(=O)c2c1ccc1nc(CN3CCN(c4ccccn4)CC3)[nH]c21 [CL28, 2-((4-(pyridin-2-yl)piperazin-1-yl)methyl)-1H-anthra[1,2-d]imidazole-6,11-dione] | – | 68.83 | 88.91 | 83.48

Source: patent US8124637B2, “Anthra [1, 2-d]imidazole-6,11-dione derivatives, preparation method and application thereof” (National Defense Medical Center, priority 2010, dated 2012)
